Assay [1] deals with T1, LOX (Mus musculus, UniProt P28301).
T1 construct: Full length LOX cDNA was then PCR cloned into pEGFP-N1 (Clonetech), or biosensor vector proGFP2—N1; expressed in transfected cells; host or cells: MDCK cells grown as cysts on Matrigel
T1 sequence (P28301 163-411): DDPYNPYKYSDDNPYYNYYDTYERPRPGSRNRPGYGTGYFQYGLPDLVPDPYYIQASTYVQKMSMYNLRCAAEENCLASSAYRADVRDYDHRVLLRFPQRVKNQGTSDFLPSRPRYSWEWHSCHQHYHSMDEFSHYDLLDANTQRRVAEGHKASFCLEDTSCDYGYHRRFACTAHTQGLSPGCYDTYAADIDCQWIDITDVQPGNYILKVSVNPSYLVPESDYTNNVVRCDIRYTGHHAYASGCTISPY
As to the kind of experiment: LOX activity in cysts assay (roGFP2 LOX biosensor in MDCK cysts). Type of assay: cell-based. The conditions noted are these: LOX; for inhibition at 2.5 µM: read-out: Cyst LOX (% inhibition) @ 2.5 uM. On the procedure:
All cell lines used in this study were purchased from American Type Culture Collection (ATCC). Mycoplasma contamination was routinely monitored by PCR. Cells used were not found to be Mycoplasma positive. MDCK cell lines were cultured in Dulbecco's Modified Eagle Medium (DMEM) supplemented with 10% fetal bovine serum (FBS) and 1% Penicillin Streptomycin solution (Pen Strep). For GFP constructs transfection in MDCK cells, lipofectamine 3000 was used according to manufactures protocols. Cells were either selected with G418 (Life Technologies) at 5 mg/ml. All cell culture reagents were purchased from Life Technologies.
To produce MDCK cysts, cells were cultured on Matrigel (Corning) with 2% Matrigel supplemented in DMEM with 10% FBS. Cysts were allowed to form for 10 days before subsequent studies.
Mouse LOX cDNA was purchased from OriGene. Full length LOX cDNA was then PCR cloned into pEGFP-N1 (Clonetech), or biosensor vector proGFP2—N1 (Hanson, 2004) using the following primers, […] (forward primer) and […] (reverse primer). For the insertion into pEGFP-N1 or proGFP2—N1, Nhel and Xhol restriction sites were added to forward and reverse primers accordingly. Mutant LOX constructs were made using QuickChange II site-directed mutagenesis kit (Agilent Technologies) following manufacture's protocol using LOX-GFP as template. To generate, roGFP2 versions of LOX mutant constructs, LOX mutant cDNA was transferred from pEGFP-N1 to proGFP2—N1 using Nhel and Xhol.
All photomicrographs were taken with a Leica TCS SP8 X confocal system. For LOX biosensor imaging, live MDCK cysts were used. The oxidised biosensor was excited using a 405 nm laser, while the reduced biosensor was excited with a 488 nm laser. Emission of the biosensor was recorded at 500 nm-530 nm range using sequential scans. Ratio images were generated following a published protocol {Kardash, 2011 #376}. Note, while the published protocol generates YFP/CFP ratio images, we used it to generate Oxidised/Reduced (roGFP2 ratio) ratio images. The roGFP2 ratio at the basal surface of MDCK cysts was used to indicate LOX inhibition. LOX inhibitors were added 30 min prior to imaging.
For clarity, readout for DMSO treated cysts represents 0% inhibition (no inhibition) and readout for BAPN at 1 mM is used as 100% inhibition (full inhibition).

The next assay concerns the target T2, LOXL2 (Homo sapiens, UniProt Q9Y4K0).
T2 construct: purchased R&D Systems/Bio-techne
T2 sequence (Q9Y4K0 26-774): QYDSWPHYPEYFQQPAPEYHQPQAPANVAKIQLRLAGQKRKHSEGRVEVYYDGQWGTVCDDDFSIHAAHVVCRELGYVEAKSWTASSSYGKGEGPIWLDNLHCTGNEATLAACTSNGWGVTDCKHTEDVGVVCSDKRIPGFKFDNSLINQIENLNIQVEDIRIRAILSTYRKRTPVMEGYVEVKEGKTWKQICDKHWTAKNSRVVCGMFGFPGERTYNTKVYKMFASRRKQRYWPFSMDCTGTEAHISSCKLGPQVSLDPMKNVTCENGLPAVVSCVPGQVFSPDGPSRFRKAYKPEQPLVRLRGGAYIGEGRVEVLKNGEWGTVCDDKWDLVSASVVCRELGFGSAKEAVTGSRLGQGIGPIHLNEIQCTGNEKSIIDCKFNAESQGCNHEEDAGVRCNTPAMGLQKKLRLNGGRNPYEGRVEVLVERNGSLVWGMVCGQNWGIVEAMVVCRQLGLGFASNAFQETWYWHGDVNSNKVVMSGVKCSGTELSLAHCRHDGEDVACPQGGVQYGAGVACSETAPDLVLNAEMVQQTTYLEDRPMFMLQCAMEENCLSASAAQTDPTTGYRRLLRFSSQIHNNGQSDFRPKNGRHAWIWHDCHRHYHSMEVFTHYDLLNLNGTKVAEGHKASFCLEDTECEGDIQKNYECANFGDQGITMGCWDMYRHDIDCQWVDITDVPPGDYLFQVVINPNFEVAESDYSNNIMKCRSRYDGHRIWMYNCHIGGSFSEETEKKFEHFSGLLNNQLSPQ
As to the kind of experiment: LOX isoform activity assay (ROS Glo), LOXL2. Format: biochemical. On the procedure: (§1) LOX was extracted from pig skin by previously described methods (Shackleton and Hulmes, 1990). LOXL2 and LOXL3 were obtained from R&D Systems/Bio-techne. The Promega ROS Glo assay kit (G8821) was used to assess enzyme activity. Overall, test compound was added to either 384 well assay plates (Greiner) using a Labcyte Echo™ Acoustic Handler or to 96 well plates for a final assay concentration of 100, 30, 10, 3, 1, 0.3, 0.1, 0.03, 0.01 and 0.003 μM final assay concentration. Enzymes were diluted according to specific pre-determined activity in assay buffer (100 mM CHES, pH 9, 0.05% (w/v) pluronic F-127, 0.5% (w/v) BSA, 1 mM MgCl2, 1 M urea, 100 mM NaCl) and added to the plate. For LOXL2, the mixture was incubated for 20 min, 1 h or 20 h; for LOX and LOXL3, incubation time was 1 h. Cadaverine and H2O2 substrate were then added to each well (final assay concentration 19.56 mM and 25 μM respectively) and the plates were incubated for 1.5 h (for LOX) or 1 h (for LOXL2 and LOXL3) at room temperature. Finally, luciferin detection reagent was added and plates were incubated for 20 min at room temperature, protected from light. Luminescence was measured using a BMG LABTECH PHERAstar FS reader and resulting IC50 values were calculated using GraphPad Prism software.
In another setting, LOXL2 enzyme was diluted according to specific pre-determined activity in assay buffer (100 mM CHES, pH 9, 0.05% (w/v) pluronic F-127, 0.5% (w/v) BSA, 1 mM MgCl2, 1 M urea, 100 mM NaCl). Overall, 0.5 μl test compound was added to 40 μl assay buffer+LOXL2 at 100, 30, 10, 3, 1, 0.3, 0.1, 0.03, 0.01 and 0.003 μM (final concentration) in a 96-well white polystyrene, flat bottom plates (Fisher) and incubated for the indicated time at room temperature. 10 μl of assay buffer containing 97.8 mM cadaverine and 125 μM H2O2 substrate (final assay concentration 19.56 mM and 25 μM respectively) were added to each well and plates were incubated for 1 h at room temperature. Finally, 50 μl per well luciferin detection reagent was added and plates were incubated for 20 min at room temperature, protected from light. Luminescence was measured with an integration time of 500 ms per well using a SpectaMax M5 plate reader and resulting IC50 values were calculated using GraphPad Prism software.

Assay [2] deals with T3, LOX (Sus scrofa, UniProt P45845).
T3 construct: LOX was extracted from pig skin by previously described methods; from tissue; host or cells: pig skin
T3 sequence (P45845 1-249): T1 sequence (P28301 163-411) with D20X, T21X, Y22X, N31Y, S80T, N142S, A188N, Q202K, T224S, D231E
Briefly: LOX isoform activity assay (ROS Glo), LOX. Conditions: 1 h incubation with enzyme. Type of assay: biochemical, pig. On the procedure: as §1

For assay [3], the target named is T4, monoamine oxidase A (MAO-A) (Homo sapiens, UniProt P21397).
T4 construct: purchased Promega V1452
T4 sequence (P21397 1-527): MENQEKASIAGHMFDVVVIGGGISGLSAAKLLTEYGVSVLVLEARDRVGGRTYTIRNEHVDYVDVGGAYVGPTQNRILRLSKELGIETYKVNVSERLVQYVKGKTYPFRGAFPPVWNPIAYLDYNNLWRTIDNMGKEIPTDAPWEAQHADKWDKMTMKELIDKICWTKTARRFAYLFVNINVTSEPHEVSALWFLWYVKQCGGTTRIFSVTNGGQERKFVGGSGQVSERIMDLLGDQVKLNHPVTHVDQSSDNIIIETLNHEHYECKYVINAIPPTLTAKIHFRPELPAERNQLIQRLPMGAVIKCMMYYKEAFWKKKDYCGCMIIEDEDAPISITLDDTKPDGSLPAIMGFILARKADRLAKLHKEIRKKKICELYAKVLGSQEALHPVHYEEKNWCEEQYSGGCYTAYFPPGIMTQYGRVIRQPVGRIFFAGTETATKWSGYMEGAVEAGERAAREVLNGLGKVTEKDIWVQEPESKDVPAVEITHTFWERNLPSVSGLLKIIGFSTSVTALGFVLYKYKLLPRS
As to the kind of experiment: Amine oxidase activity assay (MAO-Glo), MAO-A. Type of assay: biochemical. On the procedure: (§2) The Promega MAO-Glo assay kit (V1402) was used to assess monoamine oxidase A (MAO-A) and monoamine oxidase B (MAO-B) activity. MAO substrate was prepared at 80 μM with the specific MAO-A/B reaction buffer. Overall, 0.5 μl test compound was added to 25 μl MAO substrate at 100, 30, 10, 3, 1, 0.3, 0.1, 0.03, 0.01 and 0.003 μM (final concentration) in a 96-well white, flat bottom plate. Overall, 25 μl of 1:520 dilution of MAO-A enzyme (Promega, V1452) or 25 μl of 1:52 dilution of MAO-B enzyme (Sigma, M7441) in specific MAO-A/B reaction buffer was added to each well (enzyme prepared at 2×final concentration) and plates were incubated for 1 h at room temperature. Finally, 50 μl per well luciferin detection reagent was added and plates were incubated for 20 min at room temperature, protected from light. Luminescence was measured with an integration time of 500 ms per well using a SpectaMax M5 plate reader and resulting IC50 values were calculated using GraphPad Prism software.
(§3) In another setting, the DAO and MAO assays were performed in 384-well plates (Greiner) and test compound was added using a Labcyte Echo™ Acoustic Handler for the same final concentrations as in the 96-well setting. Luminescence was measured with BMG LABTECH PHERAstar FS plate reader.

Assay [4] addresses T5, monoamine oxidase B (MAO-B) (Homo sapiens, UniProt P27338).
T5 construct: purchased Sigma M7441
T5 sequence (P27338 1-520): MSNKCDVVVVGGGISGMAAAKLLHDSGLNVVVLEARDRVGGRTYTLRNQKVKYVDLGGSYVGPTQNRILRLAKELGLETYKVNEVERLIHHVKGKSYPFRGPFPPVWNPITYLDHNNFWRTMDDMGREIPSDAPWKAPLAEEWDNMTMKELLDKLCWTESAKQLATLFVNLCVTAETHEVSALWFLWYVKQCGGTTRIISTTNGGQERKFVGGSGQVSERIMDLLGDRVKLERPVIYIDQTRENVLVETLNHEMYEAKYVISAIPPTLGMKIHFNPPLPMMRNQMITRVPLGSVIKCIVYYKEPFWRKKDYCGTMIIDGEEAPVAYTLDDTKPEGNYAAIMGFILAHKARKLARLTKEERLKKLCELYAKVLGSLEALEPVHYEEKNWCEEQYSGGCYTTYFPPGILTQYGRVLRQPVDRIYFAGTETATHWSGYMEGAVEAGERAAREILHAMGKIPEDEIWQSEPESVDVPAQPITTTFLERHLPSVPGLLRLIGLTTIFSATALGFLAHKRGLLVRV
Briefly: Amine oxidase activity assay (MAO-Glo), MAO-B. Type of assay: biochemical. Here is the method: as §2, §3

Where [5] appears, read: 20 hr incubation with enzyme; read-out: LOXL2 IC50 c) 20 hr.

Where a chain is given by its changes, count along the chain named. Like-named read-outs stand apart in the source and are kept apart here.

`CCOc1ccc(N2C[C@@H]3C[C@H]2CN3C(=O)C(F)S(=O)(=O)CCN)cc1` (mixture of isomers) [Example 16, 2-((2-aminoethyl)-sulfonyl)-1-((1S,4S)-5-(4-ethoxyphenyl)-2,5-diazabicyclo-[2.2.1]heptan-2-yl)-2-fluoroethan-1-one]: the inhibition at 2.5 µM at LOX [1] (2.5 uM (stated in cell), DMSO = 0%, BAPN 1 mM = 100% inhibition) came to 73%. For the same compound, the 50% inhibitory concentration (IC50) on LOXL2 (setting [5]) was 140 nM.

Consider `CCOc1ccc(N2C[C@H]3CN(C(=O)C(F)S(=O)(=O)CCN)C[C@@H]2C(C)(C)C3)cc1` (stereo partly drawn) [Example 15, 2-((2-aminoethyl)sulfonyl)-1-((1 S,5S)-6-(4-ethoxyphenyl)-9,9-dimethyl-3,6-diazabicyclo[3.2.2]nonan-3-yl)-2-fluoroethan-1-one], for which the inhibition at 2.5 µM at LOX [1] is 78%. The IC50 on LOX [2] came to 2200 nM; at LOXL2 (setting [5]), 120 nM.

In the case of `CCOc1ccc(N2C[C@H]3CN(C(=O)C(CC(C)C)S(=O)(=O)CCN)C[C@@H]2C(C)(C)C3)cc1` (stereo partly drawn) [Example 40, 2-((2-aminoethyl)sulfonyl)-1-((1S,5S)-6-(4-ethoxyphenyl)-9,9-dimethyl-3,6-diazabicyclo[3.2.2]nonan-3-yl)-4-methylpentan-1-one], the inhibition at 10 µM on LOX [1] (10 uM, DMSO = 0%, BAPN 1 mM = 100% inhibition, inhibitor added 30 min prior to imaging, read-out: Cyst LOX @ 10 uM (% inhibition)) worked out at 79%. Further, on LOXL2 (1 hr incubation with enzyme; read-out: LOXL2 IC50 b) 1 hr), the IC50 stood at 1100 nM.

Turning to `CCOc1ccc(N2C[C@H]3CN(C(=O)c4cccc(S(=O)(=O)CCN)c4)C[C@@H]2C(C)(C)C3)cc1` [Example 32, (3-((2-aminoethyl)sulfonyl)phenyl)((1S,5S)-6-(4-ethoxyphenyl)-9,9-dimethyl-3,6-diazabicyclo[3.2.2]nonan-3-yl)methanone], the IC50 against LOX [2] is 23000 nM; on LOXL2 (setting [5]) it was 3000 nM; in assay [3] it was above 100000 nM; in assay [4], above 100000 nM.

Values taken from US20220017516A1, “LOX INHIBITORS” (THE INSTITUTE OF CANCER RESEARCH: ROYAL CANCER HOSPITAL, priority 2018, published 2022).
